The values below come from ChEMBL document CHEMBL1201862, “PubChem BioAssay data set” (2004).

Common to all, as to assay: DTP human tumour cell line panel, 48 h
In experiment [1] the test system is NCI-H460.
Experiment [2] relates to SN12C.
The subject of experiment [3] is NCI-H23.
The subject of experiment [4] is SK-OV-3.
Experiment [5] deals with HCT-15.
The test system of experiment [6] is SR.
Experiment [7] concerns SF-295.
For experiment [8], the system named is LOX IMVI.
The test system of experiment [9] is SW-620.
Experiment [10] deals with 786-0.
The subject of experiment [11] is HCC 2998.
The test system of experiment [12] is HT-29.
In experiment [13] the test system is OVCAR-3.
The test system of experiment [14] is A549.
The test system of experiment [15] is COLO 205.
For experiment [16], the system named is NCI-H226.
Experiment [17] concerns HOP-92.

For orientation: GI50 means the concentration that inhibits growth by half.

The structures appear in SMILES notation.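 Interpolation was linear, between the two tested concentrations surrounding the appropriate level; five concentrations were tested over 48 hours in 96-well plates. GI50 is the concentration that inhibits growth by half.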 Calls of active or inactive are those of the source. Cut-off read from the data, not from the text of the source: active = GI50 up to about 1.1 µM and inactive = higher.

Take `CCCCc1c2c(nc3c1CCc1cc4cc5c(nc4nc1-3)-c1nc3c(c(CCCC)c1CC5)CCCC3)CCCC2`: the GI50 was 47.1 µM (inactive) in experiment [1]; 56.4 µM (inactive) in experiment [2]; 49.5 µM (inactive) in experiment [3]; 36.5 µM (inactive) in experiment [4]; 33.2 µM in [5]; 47.4 µM (inactive) in [6]. In addition, the GI50 in [7] is 15.7 µM (inactive); in experiment [8], 41.9 µM (inactive); in experiment [9], 40 µM (inactive); in [10] it was 23.6 µM (inactive); in experiment [11], 62.2 µM (inactive); in [12] it was 7.28 µM (inactive). Further, the GI50 in experiment [13] was > 10 µM (inactive); in experiment [14], 20.5 µM (inactive); in experiment [15], 35.4 µM (inactive); in [16], 19.4 µM (inactive).
Consider `Cc1ccc(NC(=O)C2C(=O)N(c3ccc(C)c(C)c3)C(=O)/C2=N/O)cc1C` (stereo not given), for which the GI50 was 44.7 µM (inactive) in [1]; > 100 µM (inactive) in experiment [2]; > 100 µM (inactive) in [3]; > 100 µM (inactive) in [4]; above 100 µM in [5]; > 100 µM (inactive) in experiment [7]. For the same compound, the GI50 was 20.9 µM (inactive) in experiment [8]; 19.3 µM (inactive) in experiment [9]; 68.1 µM (inactive) in experiment [10]; > 100 µM (inactive) in experiment [11]; > 100 µM (inactive) in experiment [17]; > 100 µM (inactive) in experiment [12]. In addition, the GI50 in experiment [13], in experiment [14], in experiment [15] and in experiment [16] was > 100 µM (inactive) each time.
Consider `CCSC1(SCC)CCN(/C=N/C(C)(C)C)C1`, for which the GI50 is > 100 µM (inactive) in experiment [1]; > 100 µM (inactive) in experiment [2]; > 100 µM (inactive) in experiment [3]; > 100 µM (inactive) in experiment [4]; above 100 µM in [5]; > 100 µM (inactive) in experiment [6]. In addition, the GI50 is > 100 µM (inactive) in [7]; 52.6 µM (inactive) in [8]; 19.5 µM (inactive) in experiment [9]; > 100 µM (inactive) in experiment [10]; > 100 µM (inactive) in experiment [11]; > 100 µM (inactive) in [12]. Also, the GI50 in [13] was > 100 µM (inactive); in experiment [14], > 100 µM (inactive); in experiment [15], 54.7 µM (inactive); in experiment [16], > 100 µM (inactive).
Regarding `COc1ccc(C2=NN(C(=O)COc3ccc(Cl)cc3)C(O)(c3ccc(Cl)cc3)C2)cc1` (stereo not given), the GI50 in experiment [1] is > 100 µM (inactive); in [2], > 100 µM (inactive); in experiment [3] it was 36.1 µM (inactive); in [4], > 100 µM (inactive); in [5], above 100 µM; in experiment [7] it was > 100 µM (inactive). In addition, the GI50 in experiment [8], in experiment [9], in [10], in experiment [11], in [17] and in experiment [12] was > 100 µM (inactive) each time. Moreover, the GI50 in [13], in [14], in [15] and in [16] was > 100 µM (inactive) throughout.
As to `CC(C)(C)C(=O)CC(=O)C(C)(C)C.CC(C)(C)C(=O)CC(=O)C(C)(C)C.[SiH4]`, the GI50 in experiment [2] is 1.18 µM (inactive); in [3] it was 1.04 µM (active); in experiment [4] it was 1.87 µM (inactive); in [7], 1.01 µM (active); in experiment [9] it was 0.847 µM (active); in experiment [10], 2.69 µM (inactive). Also, the 50% growth inhibitory concentration (GI50) was 0.393 µM (active) in experiment [11]; 0.692 µM (active) in experiment [17]; 0.475 µM (active) in experiment [12]; 2.07 µM (inactive) in experiment [13]; 2.95 µM (inactive) in [14]; 1.46 µM (inactive) in experiment [15]. Moreover, the GI50 in [16] was 0.0428 µM (active).
Turning to `CC(O[Si](C)(C)C)C1C=CC(C)n2c(=O)n(-c3ccccc3)c(=O)n21` (stereo not given), the GI50 in experiment [3] is > 100 µM (inactive); in [4] it was > 100 µM (inactive); in experiment [5] it was above 100 µM; in experiment [6] it was > 100 µM (inactive); in [7], > 100 µM (inactive); in experiment [10], > 100 µM (inactive). The GI50 is > 100 µM (inactive) in experiment [11]; < 0.01 µM (active) in experiment [17]; > 100 µM (inactive) in [12]; > 100 µM (inactive) in experiment [13]; > 100 µM (inactive) in experiment [14]; > 100 µM (inactive) in experiment [15].
For the compound `COC1C=CC23c4cc5c(cc4C(O)OC2CN(C)C3C1)OCO5` (stereo not given), the GI50 in [1] is 2.69 µM (inactive); in experiment [2] it was 2.35 µM (inactive); in experiment [3], 2.94 µM (inactive); in experiment [6], 1.17 µM (inactive); in experiment [7] it was 1.69 µM (inactive); in [8], 1.29 µM (inactive). Further, the GI50 in [9] is 1.59 µM (inactive); in experiment [10], 1.64 µM (inactive); in experiment [11] it was 2.29 µM (inactive); in experiment [13] it was 1.76 µM (inactive); in [14], 2.4 µM (inactive); in experiment [15], 1.08 µM (active). Further, in experiment [16], the GI50 is 1.64 µM (inactive).
Take `CCOC(=O)C(C)(c1c(C)[nH]c2ccccc12)c1c(C)[nH]c2ccccc12`: the GI50 in experiment [1] was 17.6 µM (inactive); in experiment [3] it was 17.1 µM (inactive); in [4], 26 µM (inactive); in [5] it was 15 µM; in [7], 14 µM (inactive); in [9] it was 16.9 µM (inactive). Moreover, the GI50 in experiment [10] is 19.1 µM (inactive); in [11], 23.3 µM (inactive); in experiment [12], 16.7 µM (inactive); in experiment [13], 16 µM (inactive); in experiment [14] it was 19 µM (inactive); in experiment [16], 13.5 µM (inactive).
`CCCC12Cc3c(OC)ccc(OC)c3CC(Cc3c(OC)ccc(OC)c31)C2=O` (stereo not given): the GI50 in experiment [1] is > 100 µM (inactive); in experiment [2], > 100 µM (inactive); in experiment [3], > 100 µM (inactive); in [4], > 100 µM (inactive); in [5] it was above 100 µM; in experiment [6], 7.29 µM (inactive). In addition, the GI50 in experiment [7], in experiment [9], in experiment [10], in experiment [11], in [12] and in experiment [13] was > 100 µM (inactive) in each case. In addition, the figures for the GI50 in experiment [14] and in experiment [16] were > 100 µM (inactive) and 24.8 µM (inactive), respectively.
Regarding `Cc1cc2c(=O)cc(-c3cccs3)oc2c(C(=O)O)c1C`, the GI50 in experiment [1] was > 100 µM (inactive); in [2], > 100 µM (inactive); in experiment [3], > 100 µM (inactive); in experiment [4], > 100 µM (inactive); in experiment [5], 42.8 µM; in experiment [7] it was > 100 µM (inactive). Further, the GI50 in experiment [8], in experiment [9], in [10], in [11], in experiment [17] and in [12] was > 100 µM (inactive) in each case. Besides, the GI50 in [13], in [14] and in experiment [15] was > 100 µM (inactive) throughout.
For `COC12OCCN(C)C1=CC(=O)C1(C)N=NCC12` (stereo not given), the GI50 was > 100 µM (inactive) in experiment [1]; > 100 µM (inactive) in experiment [2]; > 100 µM (inactive) in [3]; > 100 µM (inactive) in experiment [4]; above 100 µM in experiment [5]; > 100 µM (inactive) in experiment [7]. For the same compound, the GI50 in experiment [8], in experiment [9], in [10], in [11], in experiment [17] and in [12] was > 100 µM (inactive) in each case. In addition, the GI50 in [13], in experiment [14], in experiment [15] and in experiment [16] was > 100 µM (inactive) throughout.
Turning to `C=C1c2[nH]c3c([N+](=O)[O-])c(OC)ccc3c2CCN1C(C)=O`, the GI50 is > 100 µM (inactive) in experiment [1]; > 100 µM (inactive) in experiment [2]; > 100 µM (inactive) in experiment [3]; above 100 µM in [5]; > 100 µM (inactive) in experiment [6]; > 100 µM (inactive) in [7]. Moreover, the GI50 in experiment [8], in [9], in experiment [10], in experiment [11], in experiment [12] and in [13] was > 100 µM (inactive) each time. Also, the GI50 in experiment [14], in [15] and in experiment [16] was > 100 µM (inactive) each time.
For the compound `COc1ccc(/C=N/Nc2nc(-c3cc4oc(=O)n(C)c4cc3Cl)cs2)cc1OC`, the GI50 in [1] is 20.7 µM (inactive); in experiment [2], 17.9 µM (inactive); in experiment [3], 6.15 µM (inactive); in experiment [4], > 100 µM (inactive); in [5], 6.65 µM; in [6], 77.4 µM (inactive). Also, the GI50 in experiment [7] was 9.23 µM (inactive); in experiment [8] it was 28.6 µM (inactive); in experiment [9], 44.1 µM (inactive); in [10], 33.4 µM (inactive); in experiment [11] it was 35.6 µM (inactive); in experiment [17] it was 25.4 µM (inactive). Also, the GI50 was 9.33 µM (inactive) in [12], 9.95 µM (inactive) in experiment [13], 4.35 µM (inactive) in experiment [14] and 81.8 µM (inactive) in experiment [15].
